The text below walks through data of ChEMBL document CHEMBL1201862, “PubChem BioAssay data set” (2004).

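These data come from cells grown in 96-well plates and exposed to compound for 48 hours at five concentrations. GI50 = concentration required for 50% inhibition of growth.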 Active and inactive are the calls of the source. Cut-off read from the data, not from the text of the source: active = GI50 up to about 1.1 µM and inactive = higher.

Test systems include SF-268; SR; HCT-116; SF-539; T47D; 786-0; NCI-H23; NCI-H226; MDA-N; CCRF-CEM; OVCAR-8; Hs-578T; DU-145; NCI-H522; UO-31; SK-MEL-28; A549; UACC-257; LOX IMVI; HL-60.
Holding throughout (assay): inhibition of tumour cell growth, NCI panel, 48 h

Take `O=C1CC(=O)NC(NN2C(=O)CSC2c2ccc(Cl)c(Cl)c2)=N1` (configuration not stated): the GI50 is > 100 µM (inactive) in the assay with SF-268; 43.8 µM (inactive) in the assay with SR; 63.2 µM (inactive) in the assay with HCT-116; > 100 µM (inactive) with SF-539; > 100 µM (inactive) in the assay on T47D; > 100 µM (inactive) in the assay with 786-0. For the same compound, the GI50 is > 100 µM (inactive) with NCI-H23; > 100 µM (inactive) in the assay with NCI-H226; 82.8 µM (inactive) with MDA-N; 19.5 µM (inactive) in the assay with CCRF-CEM; > 100 µM (inactive) in the assay on OVCAR-8; > 100 µM (inactive) in the assay with Hs-578T. The GI50 with DU-145 was > 100 µM (inactive); in the assay on NCI-H522 it was 71.8 µM (inactive); in the assay on UO-31 it was > 100 µM (inactive); in the assay on SK-MEL-28 it was > 100 µM (inactive); in the assay with A549 it was > 100 µM (inactive); in the assay on UACC-257, > 100 µM (inactive).
As to `O=Cc1cc2c(cc1-c1c(C=O)ccc3c1OCO3)OCO2`, the GI50 with LOX IMVI, with HL-60, with SF-268, in the assay on SR, in the assay with HCT-116 and in the assay on SF-539 was > 10 µM (inactive) in each case. In addition, the GI50 with T47D, with 786-0, in the assay with NCI-H23, in the assay with MDA-N, in the assay on CCRF-CEM and with OVCAR-8 was > 10 µM (inactive) throughout. Further, the GI50 in the assay with Hs-578T, in the assay on DU-145, in the assay with SK-MEL-28, with A549 and in the assay on UACC-257 was > 10 µM (inactive) each time.
Consider `CCOC(=O)c1nnn(CCCCO)c1C(=O)OCC`, for which the GI50 in the assay with LOX IMVI, in the assay on SF-268, with SR, with HCT-116, in the assay on SF-539 and in the assay on T47D was > 100 µM (inactive) each time. For the same compound, the GI50 with 786-0, with NCI-H23, in the assay with NCI-H226, with MDA-N, with CCRF-CEM and with OVCAR-8 was > 100 µM (inactive) in each case. The GI50 with Hs-578T, in the assay with DU-145, with UO-31, in the assay with SK-MEL-28, in the assay on A549 and in the assay on UACC-257 was > 100 µM (inactive) throughout.
Take `CCN1CCCn2c(=O)[nH]c3cc(Br)cc1c32`: the GI50 is > 100 µM (inactive) with LOX IMVI; > 100 µM (inactive) in the assay on HL-60; 24 µM (inactive) in the assay with SF-268; > 100 µM (inactive) with SR; > 100 µM (inactive) in the assay on HCT-116; 23 µM (inactive) with SF-539. Besides, the GI50 was 65.5 µM (inactive) with T47D; 65 µM (inactive) in the assay with 786-0; > 100 µM (inactive) in the assay on NCI-H23; 55.5 µM (inactive) in the assay on NCI-H226; > 100 µM (inactive) in the assay with MDA-N; > 100 µM (inactive) in the assay on CCRF-CEM. Moreover, the GI50 in the assay with OVCAR-8 is 27 µM (inactive); in the assay with Hs-578T, 0.394 µM (active); with DU-145, > 100 µM (inactive); with UO-31 it was > 100 µM (inactive); in the assay on SK-MEL-28, > 100 µM (inactive); in the assay with A549, > 100 µM (inactive). For the same compound, the GI50 in the assay on UACC-257 is > 100 µM (inactive).
Consider `C=CCN1C(=O)/C(=C/c2ccccc2)N=C1SC1OC(COC(C)=O)C(OC(C)=O)C(OC(C)=O)C1OC(C)=O` (configuration not stated), for which the GI50 is 27.2 µM (inactive) in the assay with LOX IMVI; 26.5 µM (inactive) in the assay on HL-60; 21.4 µM (inactive) with SF-268; 4.86 µM (inactive) with SR; 22.8 µM (inactive) with HCT-116; 27.2 µM (inactive) with T47D. For the same compound, the GI50 in the assay on 786-0 is 23.9 µM (inactive); in the assay with NCI-H23, 24.9 µM (inactive); with MDA-N, 29 µM (inactive); with CCRF-CEM, 22.5 µM (inactive); in the assay with OVCAR-8 it was 29.5 µM (inactive); in the assay on Hs-578T, 25.5 µM (inactive). The GI50 in the assay with DU-145 is 26.6 µM (inactive); in the assay on NCI-H522 it was 16.3 µM (inactive); in the assay on SK-MEL-28, 26.1 µM (inactive); in the assay on A549, 34 µM (inactive); with UACC-257, 27.9 µM (inactive).
As to `C=CCc1cc(-c2n[nH]c(=S)[nH]2)ccc1N/N=N/c1ccc(C(=O)O)cc1`, the GI50 with LOX IMVI is 74.5 µM (inactive); in the assay on HL-60 it was 30.8 µM (inactive); in the assay with SF-268 it was 49.7 µM (inactive); in the assay on SR it was 45.9 µM (inactive); in the assay with HCT-116 it was > 100 µM (inactive); in the assay with T47D it was 24 µM (inactive). In addition, the GI50 is > 100 µM (inactive) in the assay on 786-0; 48.1 µM (inactive) in the assay on NCI-H23; 42.4 µM (inactive) with NCI-H226; 66.2 µM (inactive) in the assay with MDA-N; 54 µM (inactive) in the assay with CCRF-CEM; 38.5 µM (inactive) in the assay with OVCAR-8. The GI50 in the assay with Hs-578T was 44.6 µM (inactive); in the assay with DU-145, > 100 µM (inactive); in the assay with NCI-H522, 34.1 µM (inactive); in the assay with UO-31, > 100 µM (inactive); with SK-MEL-28, > 100 µM (inactive); in the assay on A549, > 100 µM (inactive). Further, the GI50 in the assay on UACC-257 was 76.9 µM (inactive).
For the compound `CC(=O)OCC12C(OC(C)=O)C[C@@H](C)C3(CC(c4ccoc4)OC3=O)C1CCC(O)C21CO1` (some centres not stated), the GI50 in the assay with LOX IMVI, in the assay on HL-60, in the assay on SF-268, with SR, with HCT-116 and in the assay with SF-539 was > 100 µM (inactive) each time. In addition, the GI50 was 2.82 µM (inactive) in the assay with T47D; > 100 µM (inactive) with 786-0; > 100 µM (inactive) in the assay with NCI-H23; > 100 µM (inactive) in the assay on NCI-H226; > 100 µM (inactive) in the assay with MDA-N; > 100 µM (inactive) with OVCAR-8. The GI50 in the assay with Hs-578T, in the assay with DU-145, with NCI-H522, in the assay with UO-31, in the assay with SK-MEL-28 and in the assay on A549 was > 100 µM (inactive) in each case. Besides, the GI50 in the assay with UACC-257 was > 100 µM (inactive).
Turning to `CC(=O)n1nc(-c2[nH]c(C)c(-c3nn(C(C)=O)c(=S)o3)c2C)oc1=S`, the GI50 in the assay on LOX IMVI was 82.8 µM (inactive); in the assay with SF-268, > 100 µM (inactive); in the assay with SR, 41 µM (inactive); in the assay on HCT-116 it was > 100 µM (inactive); with SF-539, 81.7 µM (inactive); in the assay with T47D it was > 100 µM (inactive). In addition, the GI50 is 97.7 µM (inactive) with 786-0; > 100 µM (inactive) in the assay on NCI-H23; > 54 µM (inactive) with NCI-H226; > 100 µM (inactive) in the assay with MDA-N; 12.9 µM (inactive) in the assay on CCRF-CEM; > 100 µM (inactive) with OVCAR-8. Moreover, the GI50 in the assay on Hs-578T was > 100 µM (inactive); with DU-145, > 100 µM (inactive); in the assay with NCI-H522, > 85.7 µM (inactive); in the assay on UO-31 it was > 100 µM (inactive); with SK-MEL-28, > 100 µM (inactive); in the assay on A549, > 100 µM (inactive). The GI50 in the assay with UACC-257 is > 100 µM (inactive).
`COCn1cc(C2=C(C)C(=O)C(C)=C(C)C2=O)cn1`: the GI50 in the assay on LOX IMVI is > 10 µM (inactive); in the assay with HL-60, 4.6 µM (inactive); in the assay on SF-268, 25.4 µM (inactive); with SR, 39.4 µM (inactive); in the assay on HCT-116 it was 20 µM (inactive); in the assay on SF-539, > 100 µM (inactive). Moreover, the GI50 is 23.6 µM (inactive) with T47D; 18 µM (inactive) with 786-0; > 100 µM (inactive) with NCI-H23; > 100 µM (inactive) in the assay on NCI-H226; 48.6 µM (inactive) in the assay on MDA-N; 21.9 µM (inactive) in the assay on CCRF-CEM. The GI50 in the assay on OVCAR-8 is 21.1 µM (inactive); with Hs-578T, > 100 µM (inactive); with DU-145 it was > 100 µM (inactive); in the assay on UO-31, 57.5 µM (inactive); with SK-MEL-28, > 100 µM (inactive); with A549, > 100 µM (inactive). For the same compound, in the assay with UACC-257, the GI50 is 85.5 µM (inactive).
On to `Cc1nn(C(=O)c2ccncc2)c2c1C(c1ccc(Cl)cc1)SC(=N)N2` (configuration not stated), for which the GI50 in the assay on LOX IMVI, with HL-60, with SF-268, in the assay on SR, with HCT-116 and in the assay on SF-539 was > 10 µM (inactive) each time. Also, the GI50 in the assay with T47D, in the assay with 786-0, in the assay with NCI-H23, in the assay with NCI-H226, in the assay on MDA-N and with CCRF-CEM was > 10 µM (inactive) in each case. Further, the GI50 in the assay on OVCAR-8, in the assay on Hs-578T, in the assay on DU-145, with SK-MEL-28, in the assay on A549 and in the assay with UACC-257 was > 10 µM (inactive) in each case.
With `Cc1cc(C)c(S(=O)(=O)N[C@@H](/C=C(\Br)CO)C(C)C)c(C)c1`, the GI50 in the assay on LOX IMVI was 18.7 µM (inactive); in the assay with HL-60, 17.9 µM (inactive); in the assay with SF-268, 30.7 µM (inactive); in the assay with SR it was 25.1 µM (inactive); with HCT-116, 33.4 µM (inactive); in the assay with SF-539, 31.8 µM (inactive). For the same compound, the GI50 with T47D was 25.9 µM (inactive); with 786-0, 30.5 µM (inactive); with NCI-H23, 33 µM (inactive); in the assay with MDA-N it was 26.1 µM (inactive); in the assay with CCRF-CEM, 27.3 µM (inactive); in the assay with OVCAR-8 it was 33.7 µM (inactive). Also, the GI50 was 22.5 µM (inactive) in the assay with Hs-578T; 34.5 µM (inactive) in the assay with DU-145; 17.7 µM (inactive) with NCI-H522; 33 µM (inactive) in the assay with UO-31; 24.9 µM (inactive) with SK-MEL-28; 30.8 µM (inactive) in the assay on A549. The GI50 with UACC-257 was 21.5 µM (inactive).
